Source: patent US20220071952A1, “METHODS OF TREATING AND PREVENTING HEPATOTOXICITY” (Natreon, Inc., priority 2020, published 2022)
Where “and” joins values, the source holds several entries; their conditions need not be identical. Equal entries are not always repeated.

Legend:
[1] = tested on: paracetamol-induced hepatotoxicity in mice; assay: Paracetamol-induced hepatotoxicity in mice, serum biochemical parameters (Example I); format: in vivo, Swiss albino mice; details: for effect on paracetamol-induced hepatotoxicity (ALT, AST, triglyceride, bilirubin vs paracetamol group): 10 mg/kg body weight, male (Table 2) and female (Table 3) mice; for hepatoprotective activity against paracetamol, comparison of both test compounds: 10 mg/kg orally for 7 days; for ALP / ALT / AST / Total Bilirubin / Total Protein / Triglyceride: 10 mg/kg p.o. + paracetamol 200 mg/kg p.o., 7 days, serum, mean ± SD, n=6
Text: 3-OH-DBP (Natreon, Inc., New Brunswick, N.J., synthesized to 99% purity w/w) was in the form of a white free flowing powder. 3,8-(OH)2-DBP (Natreon, Inc., New Brunswick, N.J., synthesized to 99% purity w/w) was in the form of a pale green free flowing powder. Paracetamol (acetaminophen) was in the form of a white solid tablet.
(§1) Swiss albino mice of both sexes, weighing approximately 25-30 g, were obtained from National Research Institute of Ayurveda for Drug Development (Govt. of India), Kolkata, and were housed in polypropylene cages at 22±3° C., relative air humidity of 45 to 55%, with 12.00 hr light and dark cycle (lighting on from 6:00 AM to 6:00 PM). Mice were provided standard pellet chow (carbohydrate 65.5%, protein 17.6%, fat 6.6%) and distilled water ad libitum. The mice were acclimatized for one week in the above laboratory conditions, before being used in this experiment. All experiments were conducted between 10.00 hr and 14.00 hr. Principles of laboratory animal care (NIH publication no. 85-23, revised 1985) were followed.
The animals were randomly assigned into four groups of six animals each, as set out in Table 1. […] After 1 hr of last treatment, blood samples were collected and serum was separated.

[2] = tested on: CCl4-induced hepatotoxicity in mice; assay: Carbon tetrachloride (CCl4)-induced hepatotoxicity in mice, serum biochemical parameters (Example II); format: in vivo, Swiss albino mice; details: for effect on CCl4-induced hepatotoxicity (ALT, AST, bilirubin, total protein vs CCl4 group) / effect on CCl4-induced lipid peroxidation (MDA): mice; for ALT / AST / MDA / Total Bilirubin / Total Protein: 10 mg/kg p.o. 7 days + CCl4 (30%) 1 ml/kg i.p., serum, mean ± SD, n=6; for hepatoprotective activity against carbon tetrachloride-induced liver damage: males and females
Procedure: as §1, with “PM) and” for “PM). Mice”, “the” for “the above”, “conditions” for “conditions,”, “the” for “this”, “animals” for “animal”

[3] = tested on: CCl4-induced hepatotoxicity in mice; assay: Synergistic hepatoprotective activity of DBPs against CCl4-induced hepatotoxicity (Example IV); details: for hepatoprotective activity (conclusion, Tables 19 and 20): CCl4-induced hepatotoxicity, male and female mice; for ACP / ALP / ALT / AST / Total Protein: CCl4 1 ml/kg, mean ± SEM, n=4
[4] = female mice, paracetamol 200 mg/kg
[5] = female mice, doses 3-OH-DBP 2, 3,8-(OH)2-DBP 10, 1:5 combination 12 mg/kg b.w.
[6] = female mice, doses 3-OH-DBP 10, 3,8-(OH)2-DBP 50, 1:5 combination 60 mg/kg b.w.
[7] = male mice, doses 3-OH-DBP 2, 3,8-(OH)2-DBP 10, 1:5 combination 12 mg/kg b.w.
[8] = male mice, doses 3-OH-DBP 10, 3,8-(OH)2-DBP 50, 1:5 combination 60 mg/kg b.w.

O=c1oc2cc(O)ccc2c2ccccc12 [3-OH-DBP, 3-hydroxy-dibenzo-alpha-pyrone]
effect on paracetamol-induced hepatotoxicity (ALT, AST, triglyceride, bilirubin vs paracetamol group) [1]: significantly attenuated and reversed the paracetamol-induced hepatotoxicity
hepatoprotective activity against paracetamol, comparison of both test compounds [1, 4]: almost the same hepatoprotective activity
ALP ([1]; female mice): 82.04 ± 8.96 IU/L
ALT ([1]; female mice): 62.32 ± 15.97 IU/L
AST ([1]; female mice): 62.28 ± 12.46 IU/L
Total Bilirubin ([1]; female mice): 0.46 ± 0.26 mg/dL
Total Protein ([1]; female mice): 6.6 ± 0.44 g/dL
Triglyceride ([1]; female mice): 61.05 ± 1.73 mg/dL
hepatoprotective activity against paracetamol-induced liver damage, in comparison with 3,8-(OH)2-DBP ([1]; male mice, 10 mg/kg orally once daily for 7 days, paracetamol 200 mg/kg): better hepatoprotective activity
ALP ([1]; male mice): 80.00 ± 5.64 IU/L
ALT ([1]; male mice): 65.42 ± 23.50 IU/L
AST ([1]; male mice): 52.23 ± 3.73 IU/L
Total Bilirubin ([1]; male mice): 0.50 ± 0.23 mg/dL
Total Protein ([1]; male mice): 6.27 ± 0.14 g/dL
Triglyceride ([1]; male mice): 97.65 ± 1.96 mg/dL
effect on CCl4-induced hepatotoxicity (ALT, AST, bilirubin, total protein vs CCl4 group) ([2]; 10 mg/kg p.o.): significantly attenuated and reversed the CCl4-induced hepatotoxicity
effect on CCl4-induced lipid peroxidation (MDA) ([2]; 10 mg/kg p.o.): significantly lowered CCl4-induced lipid peroxidation
ALT ([2]; female mice): 67.34 ± 12.07 IU/L
AST ([2]; female mice): 17.48 ± 5.67 IU/L
MDA ([2]; female mice): 8.13 ± 0.167 nmol/mL
Total Bilirubin ([2]; female mice): 0.53 ± 0.21 mg/dL
Total Protein ([2]; female mice): 3.92 ± 0.88 g/dL
ALT ([2]; male mice): 58.21 ± 6.79 IU/L
AST ([2]; male mice): 12.33 ± 3.29 IU/L
Total Bilirubin ([2]; male mice): 0.50 ± 0.23 mg/dL
Total Protein ([2]; male mice): 0.00355 ± 0.00031 g/dL
MDA ([2]; male mice, 10 mg/kg): 7.04 nmol/mL and 7.04 ± 0.09 nmol/mL
hepatoprotective activity against carbon tetrachloride-induced liver damage ([2]; 10 mg/kg p.o.): significant hepatoprotective activity
hepatoprotective activity (conclusion, Tables 19 and 20) [3]: hepatoprotective activity in a dose dependent manner
ACP [3, 5]: 48 ± 5.6 (b) U/L
ALP [3, 5]: 75 ± 13 (b) IU/L
ALT [3, 5]: 81 ± 7 (b) IU/L
AST [3, 5]: 90 ± 4.2 (b) IU/L
Total Protein [3, 5]: 4.7 ± 0.59 g/dL
ACP [3, 6]: 55 ± 4.1 (e) U/L
ALP [3, 6]: 78 ± 6.9 (e) IU/L
ALT [3, 6]: 75 ± 7.6*(e) IU/L
AST [3, 6]: 69 ± 4.9 (e) IU/L
Total Protein [3, 6]: 7.2 ± 0.23 g/dL
ACP, difference in values from CCl4 treated mice [3, 5]: A = (a-b = 32) U/L
ALP, difference in values from CCl4 treated mice [3, 5]: A = (a-b = 15) IU/L
ALT, difference in values from CCl4 treated mice [3, 5]: A = (a-b = 6) IU/L
AST, difference in values from CCl4 treated mice [3, 5]: A = (a-b = 15) IU/L
ACP, difference in values from CCl4 treated mice [3, 6]: D = (a-e = 26) U/L
ALP, difference in values from CCl4 treated mice [3, 6]: D = (a-e = 12) IU/L
ALT, difference in values from CCl4 treated mice [3, 6]: D = (a-e = 12) IU/L
AST, difference in values from CCl4 treated mice [3, 6]: D = (a-e = 36) IU/L
ACP [3, 7]: 49 ± 3.6***,#( b) U/L
ALP [3, 7]: 79 ± 12#(b) IU/L
ALT [3, 7]: 72 ± 3.4**(b) IU/L
AST [3, 7]: 70 ± 4##(b) IU/L
Total Protein [3, 7]: 5.6 ± 0.37 g/dL
ACP [3, 8]: 47 ± 2.6 (e) U/L
ALP [3, 8]: 78 ± 6.9#(e) IU/L
ALT [3, 8]: 67 ± 3.6 (e) IU/L
AST [3, 8]: 69 ± 2.7 (e) IU/L
Total Protein [3, 8]: 6.3 ± 0.46 g/dL
ACP, difference in values from CCl4 treated mice [3, 7]: A = (a-b = 37) U/L
ALP, difference in values from CCl4 treated mice [3, 7]: A = (a-b = 63) IU/L
ALT, difference in values from CCl4 treated mice [3, 7]: A = (a-b = 8) IU/L
AST, difference in values from CCl4 treated mice [3, 7]: A = (a-b = 33) IU/L
ACP, difference in values from CCl4 treated mice [3, 8]: D = (a-e = 39) U/L
ALP, difference in values from CCl4 treated mice [3, 8]: D = (a-e = 64) IU/L
ALT, difference in values from CCl4 treated mice [3, 8]: D = (a-e = 13) IU/L
AST, difference in values from CCl4 treated mice [3, 8]: D = (a-e = 34) IU/L

O=c1oc2cc(O)ccc2c2ccc(O)cc12 [3,8-(OH)2-DBP, 3,8-dihydroxy-dibenzo-alpha-pyrone]
effect on paracetamol-induced hepatotoxicity (ALT, AST, triglyceride, bilirubin vs paracetamol group) [1]: significantly attenuated and reversed the paracetamol-induced hepatotoxicity
hepatoprotective activity against paracetamol, comparison of both test compounds [1, 4]: almost the same hepatoprotective activity
ALP ([1]; female mice): 105.1 ± 12.40 IU/L
ALT ([1]; female mice): 76.91 ± 16.87 IU/L
AST ([1]; female mice): 51.76 IU/L and 51.76 ± 3.72 IU/L
Total Bilirubin ([1]; female mice): 0.58 ± 0.30 mg/dL
Total Protein ([1]; female mice): 0.00541 ± 0.00049 g/dL
Triglyceride ([1]; female mice): 45.13 ± 0.80 mg/dL
ALP ([1]; male mice): 107.1 ± 19.11 IU/L
ALT ([1]; male mice): 95.97 ± 29.52 IU/L
AST ([1]; male mice): 85.75 ± 11.59 IU/L
Total Bilirubin ([1]; male mice): 0.48 ± 0.14 mg/dL
Total Protein ([1]; male mice): 5.53 ± 0.23 g/dL
Triglyceride ([1]; male mice): 57.06 ± 0.90 mg/dL
effect on CCl4-induced hepatotoxicity (ALT, AST, bilirubin, total protein vs CCl4 group) ([2]; 10 mg/kg p.o.): significantly attenuated and reversed the CCl4-induced hepatotoxicity
effect on CCl4-induced lipid peroxidation (MDA) ([2]; 10 mg/kg p.o.): significantly lowered CCl4-induced lipid peroxidation
ALT ([2]; female mice): 60.99 ± 13.49 IU/L
AST ([2]; female mice): 12.95 ± 2.46 IU/L
MDA ([2]; female mice): 6.53 ± 0.66 nmol/mL
Total Bilirubin ([2]; female mice): 0.60 ± 0.18 mg/dL
Total Protein ([2]; female mice): 4.02 ± 0.3 g/dL
hepatoprotective activity against carbon tetrachloride-induced liver damage, in comparison to 3-OH-DBP ([2]; females, 10 mg/kg p.o.): better hepatoprotective activity
ALT ([2]; male mice): 64.78 ± 4.65 IU/L
AST ([2]; male mice): 13.04 ± 3.74 IU/L
Total Bilirubin ([2]; male mice): 0.48 ± 0.14 mg/dL
Total Protein ([2]; male mice): 0.00412 ± 0.00086 g/dL
MDA ([2]; male mice, 10 mg/kg): 6.59 nmol/mL and 6.59 ± 0.82 nmol/mL
hepatoprotective activity against carbon tetrachloride-induced liver damage ([2]; 10 mg/kg p.o.): significant hepatoprotective activity
hepatoprotective activity (conclusion, Tables 19 and 20) [3]: hepatoprotective activity in a dose dependent manner
ACP [3, 5]: 48 ± 4 (c) U/L
ALP [3, 5]: 89 ± 5.1 (c) IU/L
ALT [3, 5]: 68 ± 6.5 (c) IU/L
AST [3, 5]: 57 ± 8 (c) ^ IU/L
Total Protein [3, 5]: 4.9 ± 0.21 g/dL
ACP [3, 6]: 28 ± 5.1 (f) U/L
ALP [3, 6]: 68 ± 8 (f) ^ IU/L
ALT [3, 6]: 62 ± 3.6 (f) IU/L
AST [3, 6]: 41 ± 14^###(f) IU/L
Total Protein [3, 6]: 6.6 ± 0.16 g/dL
ACP, difference in values from CCl4 treated mice [3, 5]: B = (a-c = 32) U/L
ALP, difference in values from CCl4 treated mice [3, 5]: B = (a-c = 1) IU/L
ALT, difference in values from CCl4 treated mice [3, 5]: B = (a-c = 19) IU/L
AST, difference in values from CCl4 treated mice [3, 5]: B = (a-c = 48) IU/L
ACP, difference in values from CCl4 treated mice [3, 6]: E = (a-f = 52) U/L
ALP, difference in values from CCl4 treated mice [3, 6]: E = (a-f = 22) IU/L
ALT, difference in values from CCl4 treated mice [3, 6]: E = (a-f = 25) IU/L
AST, difference in values from CCl4 treated mice [3, 6]: E = (a-f = 64) IU/L
ACP [3, 7]: 48 ± 7.2***,#(c) U/L
ALP [3, 7]: 89 ± 5.1*,,#(c) IU/L
ALT [3, 7]: 68 ± 5.1 (c) IU/L
AST [3, 7]: 70 ± 4.4##(c) IU/L
Total Protein [3, 7]: 6.3 ± 0.36 g/dL
ACP [3, 8]: 46 ± 2.5 (f)^ U/L
ALP [3, 8]: 68 ± 8##(f) ^ IU/L
ALT [3, 8]: 60 ± 2.5 (f) IU/L
AST [3, 8]: 58 ± 1.9###(f)^ IU/L
Total Protein [3, 8]: 6 ± 0.40 g/dL
Relative liver weight ([3]; male mice, CCl4 study of Example IV): significantly increased
ACP, difference in values from CCl4 treated mice [3, 7]: B = (a-c = 38) U/L
ALP, difference in values from CCl4 treated mice [3, 7]: B = (a-c = 53) IU/L
ALT, difference in values from CCl4 treated mice [3, 7]: B = (a-c = 12) IU/L
AST, difference in values from CCl4 treated mice [3, 7]: B = (a-c = 33) IU/L
ACP, difference in values from CCl4 treated mice [3, 8]: E = (a-f = 20) U/L
ALP, difference in values from CCl4 treated mice [3, 8]: E = (a-f = 74) IU/L
ALT, difference in values from CCl4 treated mice [3, 8]: E = (a-f = 20) IU/L
AST, difference in values from CCl4 treated mice [3, 8]: E = (a-f = 45) IU/L
